Here are results for three compounds from US20260055118A1, “VISIBLE LIGHT SENSITIVE PHOTOREMOVABLE PROTECTING GROUPS, PREPARATION PROCESS THEREOF, PHOTOACTIVATABLE CONJUGATES COMPRISING THEM AND USES THEREOF” (HUN-REN TERMÉSZETTUDOMÁNYI KUTATÓKÖZPONT, priority 2022, published 2026).

Common to all, as to assay type: physicochemical
Data set [1] can be described thus: Spectroscopic properties of the target conjugates in PBS. The note with it: for ε (molar absorption coefficient): at the absorption maximum. As to the method: All starting materials were obtained from commercial suppliers and used without further purification. Analytical thin-layer chromatography (TLC) was performed on silica gel 60 F254 precoated aluminum TLC plates from Merck. Flash column chromatography was performed on Teledyne Isco CombiFlash® Rf+ automated flash chromatographer with silica gel (25-40 μm) from Zeochem. NMR spectra were recorded on a Varian Inova 500 MHz spectrometer. Chemical shifts (δ) are given in parts per million (ppm) using solvent signals or TMS as the reference. Coupling constants (J) are reported in Hertz (Hz). Analytical RP-HPLC-UV/Vis-MS measurements were employed using a Shimadzu LCMS-2020 instrument applying a Gemini C18 column (100×2.00 mm I.D.) in which the stationary phase is […] with a pore size of 110 Å. The chromatograms were detected by a UV-Vis diode array (190-800 nm) and an ESI-MS detector. The following linear gradient elution profile was applied, 0 min 0% B; 6.5 min 100% B; 7 min 0% B; 8 min. 0% B) with eluent A (2% HCOOH, 5% MeCN and 93% water) and B (2% HCOOH, 80% MeCN and 18% water) at a flow rate of 1.0 mL min-1 at 30° C. The samples were dissolved in MeCN—water mixtures. Spectroscopic measurements were performed on a Jasco FP 8300 spectrofluorometer. Quartz cuvettes with path length of 1 cm were used.
The spectroscopic properties of the target conjugates were determined in PBS. […] Compounds with Q=O have absorption bands in the green-yellow region while Q=CMe2 derivatives absorb in the red (up to 700 nm). All of the compounds have moderate to high absorption coefficients and significant fluorescence. The spectroscopic details can be found in Table 1. In the table, λmax means absorption maximum; λem means fluorescence emission maximum; s means molar absorption coefficient (at the absorption maximum).

A short description of data set [2]: Uncaging experiments, LED irradiation followed by HPLC-UV-MS. The procedure:
(§1) The uncaging experiments were performed using green (4 W input power, λmax=549 nm half-width: 16 nm, output power: 72 mW), orange (4 W input power, λmax=605 nm half-width: 10 nm, output power: 140 mW) and red (4 W input power, λmax=658 nm half-width: 10 nm, output power: 210 mW) LEDs as light source. Sample solutions were prepared, each containing 1 ml of solvent (90% v/v water-MeCN or 90% PBS-MeCN or 100% methanol for the photochemical quantum yield determination) and 0.1 mM or 0.05 mM concentration of the photoactivatable conjugates. The samples were irradiated for a given time using continuous water cooling for the light source. Then, the samples were transferred to the HPLC-UV-MS system and the chromatograms were recorded. The traces at 195 nm, 254 nm or 369 nm (dependent on the cargo moieties) and at the absorption maxima of the photoremovable protecting groups (530 nm, 570 nm or 640 nm) were compared and the corresponding peaks were integrated and compared to reference calibration sets. The possible photoproducts were identified by their corresponding m/z value and also from the UV/VIS spectra from the DAD-equipped instrument. For the dark stability experiments, the HPLC sample solutions were kept in the dark and chromatograms were recorded multiple times.
The photouncaging was evaluated by HPLC-MS using green (4 W input power, λmax=549 nm half-width: 16 nm, output power: 72 mW), orange (4 W input power, λmax=605 nm half-width: 10 nm, output power: 140 mW) and red (4 W input power, λmax=658 nm half-width: 10 nm, for Q=CMe2 output power: 210 mW) LED irradiation. For all compounds the experiments were performed in 90% water/MeCN mixtures as well as in 90% PBS/MeCN (0.1 mM concentration). In all cases, the irradiation led to the release of the model active agents with significant differences based on the photoremovable protecting group, cargo unit and the connecting chemical moiety as well as on the water content of the uncaging medium. Comparing the green light absorbing target conjugates, irradiation of 39 led to the release of 54% phenylacetic acid in 60 s (FIG. 6b), while 180 s (for 50%) was required for the same result in case of 41. Approximately 65% of phenylacetic acid was released after 180 s of irradiation with orange light from model target conjugate 41 (FIG. 6a). The current state of the art BODIPY derivative (for the structure, see the next section),^20,21 released only 12% phenylacetic acid after irradiation for 1800 s. Contrary to the general expectations that increasing the wavelength diminishes photolysis rates, the uncaging of the redshifted Q=CMe2 derivative 43 was also very effective, reaching >70% release of phenylacetic acid in 120 s after red light irradiation (FIG. 6c). The high efficiency of 43 as a red light-activatable photoremovable protecting group was also compared to a π-extended BODIPY derivative (substrate 7 in REF^21, using methanol as the solvent in a concentration of 0.1 mM), the current state of the art in this region of visible light.
Importantly, except in the case of compounds wherein the connecting chemical moiety was a carbonate moiety (i.e., compound 51, FIG. 6f), the target conjugates were stable in water as well as in PBS for 24 hours in the dark. The stability and uncaging rates of several leaving groups was also assessed. Comparing the most important functional groups (carboxylic acid, amine, phenol, alcohol) in potential active agents connected via the typical linkages in the target conjugates, the carbonate bond was the most labile (compound 51, >70% decomposition in 30 s with red light at 50% power) although the long-term dark stability was poor. None of the other model active agents were released in significant quantities, however, after 24-28 hours in the dark (for dark stability data see FIGS. 6a-6h, right side).
Using HPLC-MS, not only the appearance of the released model active agents could be monitored but also the products of photolysis were detectable. […]

Data set [3] in a line: Uncaging quantum yield determination relative to BODIPY reference. Particulars: for ε × Φu, uncaging cross-section / quantum efficiency: at the wavelength in parentheses beside each value (538-660 nm); for Φu, uncaging quantum yield: calculated from active agent release; for Φu, uncaging quantum yield / Φdeg, degradation quantum yield: green light irradiation; for Φdeg, degradation quantum yield: calculated from the disappearance of the target conjugate. The procedure:
The relative photochemical quantum yields of the uncaging reactions together with the degradation quantum yields were determined from the results of the quantitative HPLC-UV experiments. In all cases, green light irradiation was used since all target conjugates absorbed in this range as well as the reference BODIPY. The photochemical quantum yields were determined using the following equation:
[formula] • where • Φu is the photochemical quantum yield of the sample • Φu,ref is the photochemical quantum yield of the reference • k is the obtained reaction rate constant of the photoreaction of the sample • kref is the obtained reaction rate constant of the photoreaction of the reference • c is the concentration of the sample • cref is the concentration of the reference • V is the volume of the sample • Vref is the volume of the reference • a is the absorption correction factor of the sample • aref is the absorption correction factor of the reference
The absorption correction factors (a) were determined from the molar absorption coefficients and the green LED emission data obtained by the fluorimeter. […] In other words, the transmittance at each wavelength together with the emission data of the light source can be used to calculate the percentage of absorbed photons according to the following equation:
[formula] • where • T(λ) is the transmittance at each wavelength (determined from the molar absorption coefficients) • F(λ) is the LED emission at each wavelength • λmin, λmax is the LED emission range.
The rate constants of the photoreactions were determined by considering the reactions monoexponential with an initial linear phase (up to 10-20% degradation). First, the concentration vs. HPLC-UV peak were determined for each cargo moieties. […] The rate constants were determined for both the reference (with known Φu) and the sample. For reference, a commonly known BODIPY derivative was used with a similar phenylacetic acid-derived cargo unit (substrate 7 from REF^40), Φu=0.15%:
The calculated photochemical quantum yields together with uncaging cross-sections or quantum efficiencies (product of the molar absorption coefficient at a given wavelength, shown in parentheses and the photochemical quantum yield) are shown in Table 2. In the table, Φu is the photochemical quantum yield of the release; Φdeg is the photochemical quantum yield of degradation; ε×Φu is the uncaging cross-section or quantum efficiency of the release at a given wavelength in parentheses.

Data set [4] in a line: Dark stability experiments (HPLC). The note with it: water and PBS, 24 hours in the dark. As to the method:
as §1, with “The traces at 195 nm, 254 nm or 369 nm (dependent on the cargo moieties) and at the absorption maxima of the photoremovable protecting groups (530 nm, 570 nm or 640 nm) were compared and the corresponding peaks were integrated and compared to reference calibration sets. The possible photoproducts were identified by their corresponding m/z value and also from the UV/VIS spectra from the DAD-equipped instrument.” left out
Importantly, except in the case of compounds wherein the connecting chemical moiety was a carbonate moiety (i.e., compound 51, FIG. 6f), the target conjugates were stable in water as well as in PBS for 24 hours in the dark. The stability and uncaging rates of several leaving groups was also assessed. […] None of the other model active agents were released in significant quantities, however, after 24-28 hours in the dark (for dark stability data see FIGS. 6a-6h, right side).

For `CC(OC(=O)Cc1ccccc1)c1c2ccc(=[N+]3CCCC3)cc-2oc2cc(N3CCCC3)ccc12.[I-]` (stereo not drawn) [Compound 41, 1-(9-(1-(2-phenylacetoxy)ethyl)-6-(pyrrolidin-1-yl)-3H-xanthen-3-ylidene)pyrrolidin-1-ium iodide], in data set [1], the “λem (fluorescence emission maximum)” value came to 592 nm, the “λmax (absorption maximum)” value is on record as 570 nm and the “ε (molar absorption coefficient)” value was 70 000 M^−1cm^−1. Besides, the “irradiation time required for 50% release of phenylacetic acid” value in data set [2] (green light) amounted to 180 s. In data set [2] (orange light, 180 s), the “release of phenylacetic acid” value is listed as “Approximately 65%”. In data set [3], the “ε × Φu, uncaging cross-section / quantum efficiency” value was found to be 1020 M⁻¹ cm⁻¹; the “Φu, uncaging quantum yield” value is on record as 1.5%; the “Φdeg, degradation quantum yield” value is given as 1.9%.
On to `CC(OC(=O)Cc1ccccc1)C1=C2C=CC(=[N+]3CCCC3)C=C2C(C)(C)c2cc(N3CCCC3)ccc21.[I-]` (stereo not drawn) [Compound 43, 1-(9,9-dimethyl-10-(1-(2-phenylacetoxy)ethyl)-7-(pyrrolidin-1-yl)anthracen-2 (9H)-ylidene)pyrrolidin-1-ium iodide], for which, in data set [1], the “λem (fluorescence emission maximum)” value worked out at 674 nm, the “λmax (absorption maximum)” value was 641 nm and the “ε (molar absorption coefficient)” value was 86 000 M^−1cm^−1. Also, the “increase in the photolysis rate versus π-extended BODIPY derivative” value in data set [2] (methanol, 0.1 mM, red light) is listed as “approximately 5 fold”. The “release of phenylacetic acid” value in data set [2] (red light, 120 s) is more than 70%. In data set [3], the “ε × Φu, uncaging cross-section / quantum efficiency” value stood at 1400 M⁻¹ cm⁻¹; the “Φu, uncaging quantum yield” value is 1.7%; the “Φdeg, degradation quantum yield” value is given as 2.2%.
As for `CC(OC(=O)Oc1ccccc1)C1=C2C=CC(=[N+]3CCCC3)C=C2C(C)(C)c2cc(N3CCCC3)ccc21.[I-]` (stereo not drawn) [Compound 51, 1-(9,9-dimethyl-10-(1-((phenoxycarbonyl)oxy)ethyl)-7-(pyrrolidin-1-yl)anthracen-2 (9H)-ylidene)pyrrolidin-1-ium iodide], in data set [1], the “λem (fluorescence emission maximum)” value was 676 nm, the “λmax (absorption maximum)” value turned out to be 643 nm and the “ε (molar absorption coefficient)” value is 73 300 M^−1cm^−1. In data set [2] (red light at 50% power, 30 s), this compound yielded a decomposition of more than 70%. In data set [4], the dark stability entry was “reduced and poor”. Moreover, in data set [3], the “ε × Φu, uncaging cross-section / quantum efficiency” value was 13 200 M^−1cm^−1; the “Φu, uncaging quantum yield” value is 18%; the “Φdeg, degradation quantum yield” value was 25%.
